Patent US20050096456A1, “Compounds comprising pseudo-amino acids” (priority 2002, published 2005)
Read-outs that look alike come from different tables or passages of the source. Residues, ends and D or L forms follow the SMILES beside them. *: point of attachment. Myristoyl = CCCCCCCCCCCCCC(=O)*

Test: Solubility of the lyophilised peptide
Format: physicochemical
Procedure: The crude peptide was desalted via gel filtration (Sephadex G10, 0.1% TFA in water) before purification by preparative C18 Vydac) high performance liquid chromatography (HPLC) using 0.1% trifluoroacetic acid and 0.1% trifluoroacetic acid/90% acetonitrile as gradient components. After lyophilisation, the peptide was a white amorphous powder, soluble to at least 10 mg/mL in both dimethylsulfoxide and water. Fast atom bombardment spectrometry gave a main peak at 2101 amu corresponding to the molecular ion of the peptide.

solubility (in dimethylsulfoxide, read-out: solubility in dimethylsulfoxide): ≥ 10000 µg/mL | solubility (in water, read-out: solubility in water): ≥ 10000 µg/mL
SMILES: CCCCCCCCCCCCCC(=O)NCC(=O)N[C@@H](CO)C(=O)N[C@@H](CO)C(=O)N[C@@H](CCCCN)C(=O)N[C@@H](CO)C(=O)N1CCC[C@H]1C(=O)N[C@@H](CO)C(=O)N[C@@H](CCCCN)C(=O)N[C@@H](CCCCN)C(=O)N[C@@H](CC(=O)O)C(=O)N[C@@H](CC(=O)O)C(=O)N[C@@H](CCCCN)C(=O)N[C@@H](CCCCN)C(=O)N1CCC[C@H]1C(=O)NCC(=O)N[C@@H](CC(=O)O)C(=O)N[C@@H](CCCCNC(=O)[C@@H](N)CS)C(N)=O [MSWP2278, Myristoyl-Gly-Ser-Ser-Lys-Ser-Pro-Ser-Lys-Lys-Asp-Asp-Lys-Lys-Pro-Gly-Asp-(E-amino-cysteinyl carboxamide)-Lys-NH2] (Myristoyl-GSSKSPSKKDDKKPGDK(Cys)-NH2)
